Holding throughout (type): binding
In test [1] the test system is antibodies against mycobacterial material in human serum. As to the kind of experiment: ELISA with antigen immobilised on ELISA plates, rabbit anti-human IgM HRP as secondary antibody. The following applies: for tuberculosis specific binding of antibodies to the immobilised antigen: overall conclusion from TB patient versus healthy samples; for background ELISA signal (absorbance at 450 nm) in healthy persons: serum of healthy persons, 1:20, 'lower' is relative to immobilised mycolic acid. A general note: ELISA stands for enzyme-linked immunosorbent assay.

The test system is the same in test [2]. As to the kind of experiment: ELISA with diacyl glycolipid antigen of formula (XIII) immobilised via the terminal thio group.
The test system is the same in test [3]. As to the kind of experiment: ELISA with antigen immobilised on ELISA plates, rabbit anti-human IgG HRP as secondary antibody.
Where [4] appears, read: serum of smear positive TB patients 1-9 (+).

For “2-palmitoyl-3-hydroxyphthioceranoyl-2′-sulfate-α-α′-D-trehalose [Ac2SGL]”, in test [1], the “tuberculosis specific binding of antibodies to the immobilised antigen” value (shortened to “tuberculosis specific binding”) is on record as “very high tuberculosis specific binding” and the “background ELISA signal (absorbance at 450 nm) in healthy persons” value is “markedly lower”. Moreover, the “absorbance signal of samples from smear negative patients versus healthy persons” value in test [1] (serum of smear negative TB patients 11-18 (−)) is recorded as “significantly higher than the signal of the healthy persons”. Also, in test [1] (setting [4]), the “absorbance signal of samples from smear positive patients versus healthy persons” value is given as “higher than the signal of the healthy persons”.
Regarding `C/C(=C\C[n+]1cnc2c(ncn2[C@@H]2O[C@H](CO)C(O)[C@@H]2O)c1N)CC[C@@]1(C)[C@@H]2CCCC(C)(C)C2=CC[C@@H]1C` (stereo partly shown) [1-tuberculosinyladenosine], in test [1], the “tuberculosis specific binding” value is “very high tuberculosis specific binding” and the “background ELISA signal (absorbance at 450 nm) in healthy persons” value was “markedly lower”.
With `CCCCCCCCCCCCCCCCCC[C@H](C)C[C@H](C)[C@@H](O)[C@H](C)C(=O)O[C@@H]1C(OC(=O)CCCCCCCCCCCCCCCS)[C@@H](O[C@H]2OC(CO)[C@@H](O)C(O)[C@H]2O)OC(CO)[C@H]1O` (stereo partly shown) [formula (XIII)], the “background ELISA signal in healthy persons” value in test [2] (healthy persons (n=4)) is reported as “markedly lower”. The “tuberculosis specific binding” value in test [2] (overall conclusion, most significant in smear negative samples) is reported as “very high tuberculosis specific binding”. For the same compound, in test [2] (smear negative patients (n=32), very low standard deviation), the “absorbance signal of samples from smear negative patients versus healthy persons” value was “significantly higher than the signal of the healthy persons”. Besides, the “absorbance signal of samples from smear positive patients versus healthy persons” value in test [2] (smear positive patients (n=9), rather high standard deviation) is “higher than the signal of the healthy persons”.
As for `CCCCCCCC(C)CCCC(C)CCCC(C)CCCC(C)CCCC(C)CCCOP(=O)(O)O[C@@H]1O[C@H](CO)[C@@H](O)[C@H](O)[C@@H]1O` (stereo partly drawn) [β-mannosyl phosphomycoketide], the “tuberculosis specific binding” value in test [3] (overall conclusion, in particular smear positive samples) is listed as “very high tuberculosis specific binding”. Also, in test [3] (serum of healthy persons, 1:20, 'lower' is relative to immobilised mycolic acid), the “background ELISA signal (absorbance at 450 nm) in healthy persons” value was “markedly lower”. Moreover, the “absorbance signal of samples from smear positive patients versus healthy persons” value in test [3] (setting [4]) was “significantly higher than the signal obtained in the healthy persons”.
